Measurements published in publication PMC9176790 (PLoS Pathogens, 2022).

Biological target: RaaR (RSp0912) (Ralstonia pseudosolanacearum, UniProt Q8XRE2)
Test: biochemical

RaaR (RSp0912), sequence (Q8XRE2 1-313 limits assumed): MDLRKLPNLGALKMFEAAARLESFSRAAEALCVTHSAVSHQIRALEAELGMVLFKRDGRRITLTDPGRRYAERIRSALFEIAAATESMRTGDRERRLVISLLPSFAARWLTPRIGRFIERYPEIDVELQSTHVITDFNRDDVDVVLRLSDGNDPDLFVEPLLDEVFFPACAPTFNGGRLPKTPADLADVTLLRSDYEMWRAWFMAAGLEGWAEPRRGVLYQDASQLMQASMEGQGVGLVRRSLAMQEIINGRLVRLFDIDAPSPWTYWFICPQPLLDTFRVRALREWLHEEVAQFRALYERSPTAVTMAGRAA

In the case of Nc1ccccc1C(=O)O [anthranilic acid], the Kd is reported as 3.63 µM.
